The record followed here is BindingDB's records for doi:10.1021/jm9603072 (University of Paris, 1997).

pKi: −log10 of the molar value.

This test has as its target Gastrin/cholecystokinin type B receptor (Cavia porcellus). Put plainly: Inhibition of [3H]pCCK-8 binding to Guinea pig cortex membrane Cholecystokinin type B receptor.

By pKi is commonly meant the Ki on a negative log10 scale, so that one unit is a factor of ten. High values mean a small Ki, low ones a large Ki. For the compound `C[C@]1(Cc2c[nH]c3ccccc23)NC(=O)CCCCSSCC[C@@H](C(=O)N[C@@H](CC(=O)O)C(=O)N[C@@H](Cc2ccccc2)C(N)=O)NC1=O` [N-(1-Carbamoyl-2-phenyl-ethyl)-3-{[(5R,8R)-8-(1H-indol-3-ylmethyl)-8-methyl-7,10-dioxo-1,2-dithia-6,9-diaza-cyclotetradecane-5-carbonyl]-amino}-succinamic acid], the pKi is 7.29.
